Like-named read-outs stand apart in the source and are kept apart here.

The nature of assay [1]: Constant composition HAP crystal growth inhibition. The settings on record: for Rate of HAP crystal growth: 37 °C, uninhibited rate 9.09; for Reduction of HAP crystal growth rate: concentration of 3.1×10^-5 M. How it is done: Hydroxyapatite seed crystals were prepared from calcium nitrate and potassium dihydrogen phosphate, as detailed elsewhere. The specific surface area, 34.9 m2 g-1, was determined by BET nitrogen adsorption using a 30/70 N2/He mixture (Monosorb, Quantachrome Corp). HAP crystals in the form of a suspension in water (41.8 g L-1) were used for the crystal growth experiments.
Solutions were prepared using triply distilled carbon dioxide-free water and filtered before use through washed 0.22 μm filters (Millipore, Bedford, Mass.). Calcium concentrations were determined either complexometrically by EDTA titration with Eriochrome Black-T as indicator, or by atomic absorption (Perkin-Elmer, model 3100, Norwich, Conn.). Carbon dioxide-free potassium hydroxide solutions were prepared from washed Reagent grade pellets in a nitrogen atmosphere.
Crystal growth experiments were made in magnetically-stirred water-jacketed Pyrex vessels at 37.0±0.05° C. with ionic strength, I=0.15 mol L^−1, adjusted by the addition of sodium chloride. Supersaturated solutions were prepared by introducing calcium chloride solution, followed by potassium dihydrogen phosphate solution. The pH was adjusted to the required value by the slow addition of potassium hydroxide solutions. During the reactions, carbon dioxide was excluded by bubbling with presaturated nitrogen gas. After equilibration, 0.5 mL of the HAP slurry was introduced to initiate the reaction. Since the nucleation and growth of crystals consume solution lattice ions, the lowering of pH was used to trigger the addition of two titrant solutions that served to maintain constant the pH, the concentrations of calcium and phosphate and the ionic strength of the solution. A glass electrode (Orion, model 9101), standardized using two NBS buffer solutions at pH=7.386 and 4.028 at 37° C., was used to control titrant addition through a potentiostat. The total calcium concentration in all experiments was 6.00×10^−4 mol L^−1 with a calcium/phosphate molar ratio of 1.67, so as to achieve a supersaturation with respect to HAP of σ=5.55 (as defined in Eq. (1)), as computed from mass balance, proton dissociation, electroneutrality, and equilibrium expressions involving calcium and phosphate species.
In Eq. (1), v is the number of ions per formula unit of precipitating phase and IP and KSO are, respectively, the ionic and solubility products of HAP.
During the reactions, samples were withdrawn periodically, filtered (0.22 μm Millipore filter) and analyzed for calciwn by atomic absorption and for phosphate spectrophotometrically (Varian, Cary 210) as the phosphovanadomolybdate complex in order to verify the constancy of the solution composition. Solid phases were examined by X-ray powder diffraction, XRD, (Siemens Nicolet/Nic spectrometer, CuK radiation with Ni filter=1.540; 2 from 3o to 45o), by scanning electron microscopy (SEM at 20 kV; JEOL JSM-5300, Noran Instrumental Inc. Middleton, Wis.) and by diffuse reflectance infared fourier transform spectroscopy (FTR, Perkin Elmer 1760×Fr-IR spectrometer). Plots of mineralization were calculated from plots of titrant volumes as a function of time as described previously.
It is quite well established that strong inhibitors of crystal growth, such as the phosphonates, act by blocking, through adsorption, active growth sites at the crystal surfaces. Commonly, inhibition kinetics data are interpreted in terms of a simple Langmuir adsorption model. Assuming that the adsorbed fullerene molecules occupy a fraction, θ, of the active growth sites, thereby preventing them from participating in the growth, the growth rate R can be written in terms of the uninhibited rate Ro (Eq. (2)): […]

The conditions of assay [2]: cited from earlier work.
[3] abbreviates: Concentration 1.0 × 10^−6 mol/L.

Turning to “4,4-bisphosphono-2-(polyhdroxyl-1,2-dihdro-1,2-methanofullerene[60]-61-carboxamido)butyric Acid [C60(OH)16AMBP]”, the “Rate of HAP crystal growth” value in assay [1] (C60(OH)16AMBP 0.39 × 10^−6 mol L^−1) was 7.67 10^−8 mol min^−1 m^−2; in assay [1] (C60(OH)16AMBP 0.77 × 10^−6 mol L^−1), 6.51 10^−8 mol min^−1 m^−2; in assay [1] (C60(OH)16AMBP 1.16 × 10^−6 mol L^−1) it was 4.55 10^−8 mol min^−1 m^−2; in assay [1] (C60(OH)16AMBP 1.54 × 10^−6 mol L^−1), 3.77 10^−8 mol min^−1 m^−2; in assay [1] (C60(OH)16AMBP 1.93 × 10^−6 mol L^−1), 2.83 10^−8 mol min^−1 m^−2; in assay [1] (C60(OH)16AMBP 2.32 × 10^−6 mol L^−1) it was 2.46 10^−8 mol min^−1 m^−2. Also, the “Rate of HAP crystal growth” value is given as 1.92 10^−8 mol min^−1 m^−2 in assay [1] (C60(OH)16AMBP 2.7 × 10^−6 mol L^−1), 1.57 10^−8 mol min^−1 m^−2 in assay [1] (C60(OH)16AMBP 3.09 × 10^−6 mol L^−1) and 1.23 10^−8 mol min^−1 m^−2 in assay [1] (C60(OH)16AMBP 3.47 × 10^−6 mol L^−1). The figures for the “Percent Reduction in Growth Rate” value in assay [1] (setting [3]) and in assay [1] (Concentration 3.5 × 10^−6 mol/L) were 50% and 87%, respectively. Moreover, the “Reduction of HAP crystal growth rate” value in assay [1] was 87%.

On to `CC(O)(P(=O)(O)O)P(=O)(O)O` [CH3C(OH)[P(O)(OH)2]2, 1-hydroxyethylidene-1,1-diphosphonic acid], for which the “Percent Reduction in Growth Rate” value in assay [2] (setting [3]) was 69^ref 29%. Moreover, in assay [2], the “Affinity Constant” value is on record as 13.3 × 10^5 ref 29 L mol^−1.

Fullerenol[60] [C60(OH)30]: the “Rate of HAP crystal growth” value in assay [1] (C60(OH)30 0.41 × 10^−6 mol L^−1) is reported as 8.31 10^−8 mol min^−1 m^−2; in assay [1] (C60(OH)30 0.81 × 10^−6 mol L^−1), 7.8 10^−8 mol min^−1 m^−2; in assay [1] (C60(OH)30 1.22 × 10^−6 mol L^−1), 6.55 10^−8 mol min^−1 m^−2; in assay [1] (C60(OH)30 1.63 × 10^−6 mol L^−1), 5.94 10^−8 mol min^−1 m^−2; in assay [1] (C60(OH)30 2.03 × 10^−6 mol L^−1) it was 5.7 10^−8 mol min^−1 m^−2; in assay [1] (C60(OH)30 2.44 × 10^−6 mol L^−1) it was 4.65 10^−8 mol min^−1 m^−2. Further, the “Rate of HAP crystal growth” value in assay [1] (C60(OH)30 2.85 × 10^−6 mol L^−1) is 4.07 10^−8 mol min^−1 m^−2; in assay [1] (C60(OH)30 3.25 × 10^−6 mol L^−1), 3.97 10^−8 mol min^−1 m^−2; in assay [1] (C60(OH)30 3.66 × 10^−6 mol L^−1) it was 3.85 10^−8 mol min^−1 m^−2; in assay [1] (C60(OH)30 4.07 × 10^−6 mol L^−1), 2.64 10^−8 mol min^−1 m^−2; in assay [1] (C60(OH)30 4.47 × 10^−6 mol L^−1) it was 2.49 10^−8 mol min^−1 m^−2. The “Percent Reduction in Growth Rate” value in assay [1] (setting [3]) was found to be 28%. For the same molecule, the “Affinity Constant” value in assay [1] (Langmuir adsorption model, slope of Ro/R versus concentration) was determined as 414000 L/mol. In addition, the “Reduction of HAP crystal growth rate” value in assay [1] turned out to be 58%.

These data come from patent US20040038946A1, “Fullerene-based drugs targeted to bone” (priority 2003, published 2004).
